Measured values: US20130303562A1, “CHEMICAL AND RNAI SUPPRESSORS OF NEUROTOXICITY IN HUNTINGTON'S DISEASE” (priority 2010, published 2013)

Columns and labels:
HD model strain mice = experiment: Morris water maze assay in HD model strain mice; type: in vivo, mouse; conditions: treated from 4 weeks, tested at 8 weeks of age, vs untreated HD mice
Description: Mouse strains: Mouse strain names provided herein adhere to the Guidelines for Nomenclature of Mouse and Rat Strains, Revised October 2011, International Committee on Standardized Genetic Nomenclature for Mice, accessible at www.informatics.jax.org/mgihome/nomen/strains.shtml. Official gene symbols, or, where appropriate, official mouse strain names of the Jackson Laboratory (www.jax.org, e.g., the Jackson Laboratory Mice Database at jaxmice.jax.org) are used. There are numerous HD mouse strains suitable for candidate compound or nucleic acid construct screening, and for pre-clinical evaluations of candidates for the treatment of HD such as the HD model strains R6/2, R6/1, N171-82Q, CAG140, HdhQ111, BACHD, and CAG150 (Crook Z R, Housman D (2011) Huntington's disease: can mice lead the way to treatment? Neuron. 69:423-35; the entire contents of which are incorporated herein by reference). The HD model strains differ in their manifestations and time line of HD-like symptoms, e.g., motor and cognitive dysfunctions. […]
Morris water maze assay: The water maze assay measures spatial learning in mice. […] The sixth day has a single-trial probe test without the platform, and the time spent in each quadrant is recorded. […] The navigation of the mice is tracked by video camera, and the escape latency to the platform is recorded. […]

[1] = test system: HD larvae (Elav^c155-GAL4; UAS-Htt-Q138/+); experiment: In vivo rescue: viability of HD larvae after 5-day drug dosing in liquid culture; parameters: species or system Drosophila; conditions: larvae reared in liquid culture, 5-day dosing, compared to DMSO-treated controls
Description: In vivo Rescue studies: For small molecule in vivo rescue studies, Elav^c155; UAS-Htt-Q138-mRFP^1, UAS-mCD8-GFP/+1st instar larvae were collected en-masse and dispensed into liquid yeast media (10 larvae/well) containing therapeutic agents at three different concentrations as described in the results (n=8 replicas/concentration). Cultures were reared at 21° C. and larval viability was assessed after 5 days and the mean number of living Htt138Q larvae (i.e. GFP^+, Htt138QmRFP^+, and mobile) was tabulated, and expressed as a percentage of total larvae/well. For genetic rescue studies with lkb1, two Htt138Q strains were utilized: a strong expressing line, UAS-Htt138QmRFP^1 which is pharate lethal when crossed to Elav^c155, and a weaker expressing line, UAS-Htt138QmRFP^2 which survives to adulthood and is viable for a number of weeks. Using the strong line, pharate lethality at 25° C. was calculated after lkb1 (lkb1^4B1-11 and lkb1^4A4-2 alleles) was introduced into an Elav^c155, UAS-Htt/+background. Lkb1^4B1-11 is a premature truncation allele (Q98>Stop), and lkb1^4A4-2 is an EMS null allele (589 b.p. deletion removing 150 b.p. of the 5′ UTR, the start codon and the beginning of the open reading frame). For Top1 in vivo analysis, Elav^c155, Top^112 recombinants were generated and crossed to UAS-Htt138QmRFP^1.
To further examine the RNAi/small molecule screen hits, we assayed in vivo efficacy by testing their ability to rescue lethality in our Drosophila HD model. […] Specific inhibitors of Lkb1 were not available for in vivo testing.

gap junction = conditions: cited from earlier work

Compound: CC1(C)[C@@H](OC(=O)CCC(=O)O)CC[C@]2(C)[C@H]3C(=O)C=C4[C@@H]5C[C@@](C)(C(=O)O)CC[C@]5(C)CC[C@@]4(C)[C@]3(C)CC[C@@H]12 [Carbenoxolone]
- Impairment of cognitive capabilities (latency to escape, water maze) (HD model strain mice): lesser degree of impairment
- Viability of Htt-Q138 expressing larvae / rescue of Htt-Q138 lethality [1]: comparable activity
- Viability of Htt-Q138 expressing larvae / rescue of Htt-Q138 lethality ([1]; listed as carbenoxolone): rescue HD toxicity in vivo
- Gap junction activity (gap junction): block gap junction activity
